PubChem BioAssay AID330 (DTP/NCI, 2004)
Where “and” joins values, the source holds several entries; their conditions need not be identical. Equal entries are not always repeated. Inconclusive results and toxic doses are left out. The calls were made as follows: active = survival T/C of 150% or more; inactive = T/C below 125% in these data.

Test system: P388 leukemia ip, CD2F1 mice, survival T/C
Experiment: NCI In Vivo Anticancer Drug Screen. Data for tumor model P388 Leukemia (intraperitoneal) in CD2F1 (CDF1) mice
Conditions: endpoint: median survival time, higher = longer survival
Method in brief: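 Mice carrying the transplanted tumor received test compound or vehicle. Survival was recorded in each group, and the value is the treated-group measurement divided by that of the vehicle-treated control group.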

[1] = dose: 50.0 mg/kg/injection, schedule: Q01DX005 (ip), vehicle: Klucel (hydroxypropylcellulose) (HPC)
[2] = dose: 100.0 mg/kg/injection, schedule: Q01DX005 (ip), vehicle: Klucel (hydroxypropylcellulose) (HPC)
[3] = dose: 200.0 mg/kg/injection, schedule: Q01DX005 (ip), vehicle: Klucel (hydroxypropylcellulose) (HPC)
[4] = dose: 60.0 mg/kg/injection, schedule: Q01DX005 (ip), vehicle: Klucel (hydroxypropylcellulose) (HPC)
[5] = dose: 240.0 mg/kg/injection, schedule: Q01DX005 (ip), vehicle: Klucel (hydroxypropylcellulose) (HPC)
[6] = dose: 50.0 mg/kg/injection, schedule: Q01DX009 (ip), vehicle: saline with Tween-80
[7] = dose: 100.0 mg/kg/injection, schedule: Q01DX009 (ip), vehicle: saline with Tween-80
[8] = dose: 200.0 mg/kg/injection, schedule: Q01DX009 (ip), vehicle: saline with Tween-80
[9] = dose: 60.0 mg/kg/injection, schedule: Q01DX005 (ip), vehicle: saline with Tween-80
[10] = dose: 120.0 mg/kg/injection, schedule: Q01DX005 (ip), vehicle: saline with Tween-80
[11] = dose: 240.0 mg/kg/injection, schedule: Q01DX005 (ip), vehicle: saline with Tween-80

Measured: T/C

CC(=O)Nc1cccc(/C(C)=N/NC(N)=O)c1
inactive: dose: 50.0 mg/kg/injection, schedule: Q01DX005 (ip), vehicle: saline with Tween-80 91 % of control | dose: 100.0 mg/kg/injection, schedule: Q01DX005 (ip), vehicle: saline with Tween-80 91 % of control | dose: 200.0 mg/kg/injection, schedule: Q01DX005 (ip), vehicle: saline with Tween-80 89 % of control

CC(=O)C1=CN(C)c2ccccc2[S@@]1=O
inactive: [1] 103 % of control | [2] 100 % of control | [3] 100 % of control

C[Si](C)(C)ONC(=O)c1ccccc1
inactive: dose: 6.25 mg/kg/injection, schedule: Q01DX009 (ip), vehicle: distilled water + Tween-80 100 % of control | dose: 12.5 mg/kg/injection, schedule: Q01DX009 (ip), vehicle: distilled water + Tween-80 92 % of control | dose: 25.0 mg/kg/injection, schedule: Q01DX009 (ip), vehicle: distilled water + Tween-80 109 % of control | dose: 50.0 mg/kg/injection, schedule: Q01DX009 (ip), vehicle: distilled water + Tween-80 102 % of control | dose: 100.0 mg/kg/injection, schedule: Q01DX009 (ip), vehicle: distilled water + Tween-80 99 % of control | dose: 200.0 mg/kg/injection, schedule: Q01DX009 (ip), vehicle: distilled water + Tween-80 105 % of control

CCOC(=O)C(/C=N/NC(N)=S)CC (stereo not given)
inactive: dose: 100.0 mg/kg/injection, schedule: Q01DX001 (ip), vehicle: saline with Tween-80 100 % of control | dose: 200.0 mg/kg/injection, schedule: Q01DX001 (ip), vehicle: saline with Tween-80 99 % of control | dose: 400.0 mg/kg/injection, schedule: Q01DX001 (ip), vehicle: saline with Tween-80 97 % of control

COc1ccc(N=Cc2cc3c(cc2Br)OCO3)cc1
inactive: dose: 25.0 mg/kg/injection, schedule: Q01DX009 (ip), vehicle: other 97 % of control | dose: 50.0 mg/kg/injection, schedule: Q01DX009 (ip), vehicle: other 96 % of control | dose: 100.0 mg/kg/injection, schedule: Q01DX009 (ip), vehicle: other 94 % of control | dose: 200.0 mg/kg/injection, schedule: Q01DX009 (ip), vehicle: other 100 % of control | dose: 400.0 mg/kg/injection, schedule: Q01DX009 (ip), vehicle: other 100 % of control

CNC(=O)NC(c1cc(OC)c(OC)c(OC)c1)c1cc2c(cc1O)OCO2 (stereo not given)
inactive: dose: 30.0 mg/kg/injection, schedule: Q01DX005 (ip), vehicle: Klucel (hydroxypropylcellulose) (HPC) 89 % of control | [4] 87 % of control and 92 % of control | [5] 87 % of control

CC(C)=Nc1c(C(N)=O)c(-c2ccccc2)c(-c2ccccc2)n1-c1ccccc1
inactive: [6] 107 % of control | [7] 107 % of control | [8] 98 % of control

O=C(Nc1ccc(S(=O)(=O)c2ccc(NC(=O)c3ccco3)cc2)cc1)c1ccco1
inactive: [6] 105 % of control | [7] 98 % of control | [8] 95 % of control

COC(=O)c1nnn(Cc2ccccc2)c1Cl
inactive: [1] 98 % of control | [2] 103 % of control and 104 % of control | [3] 102 % of control and 105 % of control

C=C1C2(O)CCC(C2)C1(C)C (stereo not given)
inactive: [4] 108 % of control | dose: 120.0 mg/kg/injection, schedule: Q01DX005 (ip), vehicle: Klucel (hydroxypropylcellulose) (HPC) 106 % of control | [5] 100 % of control

Nc1nc(CCCCc2ccccc2)c(N=Nc2ccc(Cl)cc2)c(=O)[nH]1
inactive: [9] 97 % of control | [10] 95 % of control | [11] 103 % of control

COc1ccc(C(=O)NC(C(N)=O)C(N)=O)cc1
inactive: dose: 100.0 mg/kg/injection, schedule: Q04DX003 (ip), vehicle: saline 99 % of control | dose: 200.0 mg/kg/injection, schedule: Q04DX003 (ip), vehicle: saline 99 % of control | dose: 400.0 mg/kg/injection, schedule: Q04DX003 (ip), vehicle: saline 97 % of control

Cc1nn(CC(=O)O)c(=O)c(C#N)c1-c1ccccc1
inactive: dose: 62.5 mg/kg/injection, schedule: Q04DX002 (ip), vehicle: other 116 % of control | dose: 125.0 mg/kg/injection, schedule: Q04DX002 (ip), vehicle: other 102 % of control | dose: 250.0 mg/kg/injection, schedule: Q04DX002 (ip), vehicle: other 115 % of control | dose: 500.0 mg/kg/injection, schedule: Q04DX002 (ip), vehicle: other 109 % of control

Cc1ccc2c(C)c3c(ccc4ccccc43)c[n+]2c1
inactive: dose: 2.5 mg/kg/injection, schedule: Q04DX003 (ip), vehicle: other 103 % of control | dose: 5.0 mg/kg/injection, schedule: Q04DX003 (ip), vehicle: other 101 % of control | dose: 10.0 mg/kg/injection, schedule: Q04DX003 (ip), vehicle: other 100 % of control | dose: 20.0 mg/kg/injection, schedule: Q04DX003 (ip), vehicle: other 104 % of control

O=S(=O)(O)C(I)S(=O)(=O)O
inactive: dose: 50.0 mg/kg/injection, schedule: Q01DX009 (ip), vehicle: saline 91 % of control | dose: 100.0 mg/kg/injection, schedule: Q01DX009 (ip), vehicle: saline 94 % of control

CCOC(=O)C1=C(C(=O)c2ccc(C)cc2)C(c2c(Cl)cccc2Cl)C(C(=O)c2ccc(C)cc2)=C(C(=O)OCC)N1
inactive: dose: 30.0 mg/kg/injection, schedule: Q01DX005 (ip), vehicle: saline with Tween-80 104 % of control | [9] 102 % of control | [10] 104 % of control and 90 % of control | [11] 88 % of control

O=C1CCC(N2C(=O)C3CCCCC3C2=O)C(=O)O1 (stereo not given)
inactive: dose: 50.0 mg/kg/injection, schedule: Q01DX009 (ip), vehicle: Klucel (hydroxypropylcellulose) (HPC) 94 % of control | dose: 100.0 mg/kg/injection, schedule: Q01DX009 (ip), vehicle: Klucel (hydroxypropylcellulose) (HPC) 108 % of control | dose: 200.0 mg/kg/injection, schedule: Q01DX009 (ip), vehicle: Klucel (hydroxypropylcellulose) (HPC) 99 % of control

CC1/C(=N/Nc2ccc([N+](=O)[O-])cc2)CC2C3(C)CCC2(C(C)C(=O)O)C(=O)C13 (stereo not given)
inactive: dose: 25.0 mg/kg/injection, schedule: Q04DX003 (ip), vehicle: Klucel (hydroxypropylcellulose) (HPC) 92 % of control | dose: 50.0 mg/kg/injection, schedule: Q04DX003 (ip), vehicle: Klucel (hydroxypropylcellulose) (HPC) 94 % of control | dose: 100.0 mg/kg/injection, schedule: Q04DX003 (ip), vehicle: Klucel (hydroxypropylcellulose) (HPC) 88 % of control and 94 % of control | dose: 400.0 mg/kg/injection, schedule: Q04DX003 (ip), vehicle: Klucel (hydroxypropylcellulose) (HPC) 90 % of control

CN(CC1CNc2nc(N)[nH]c(=O)c2N1C=O)c1ccc(C(=O)NC(CCC(=O)O)C(=O)O)cc1 (stereo not given)
inactive: dose: 50.0 mg/kg/injection, schedule: Q01DX009 (ip), vehicle: sodium bicarbonate 101 % of control | dose: 100.0 mg/kg/injection, schedule: Q01DX009 (ip), vehicle: sodium bicarbonate 106 % of control | dose: 200.0 mg/kg/injection, schedule: Q01DX009 (ip), vehicle: sodium bicarbonate 108 % of control
